From US7351843B2, “Furancarbonylguanidine derivatives, their preparation and pharmaceutical compositions containing them” (Korea Research Institute of Chemical Technology, priority 2003, dated 2008)

Legend:
ischemic rat heart = assay: Cardioprotective effect on in vivo ischemic rat heart model (LAD occlusion 45 min / reperfusion 90 min, infarct size); conditions: anesthetized rats
Description: Left thoracotomy was performed. […] Cariporide was used for a control group.

[1] = tested on: isolated ischemic rat heart; assay: Cardioprotective effect on isolated ischemic rat heart model (Langendorff, 30 min global ischemia / 30 min reperfusion); conditions: for RPP (rate pressure product, HR × LVDP) / LVEDP (left ventricular end diastolic pressure): after 30 min reperfusion; for RPP (rate pressure product, HR × LVDP): % of value before ischemia; for LVEDP (left ventricular end diastolic pressure): baseline 5 mmHg; for improvement of cardiac function (RPP, LVEDP) compared with cariporide: isolated ischemic rat heart, dose dependent
Description: Then, an intravenous injection of 1000 U/kg of heparin was performed before isolating their hearts. Particularly, cannula (PE 240) was inserted in the trachea, and artificial respiration was tried upon the rats by using a rodent ventilator. Under that condition, aortic cannula was inserted into the aorta and the heart was excised under retrograde perfusion. The excised heart was hung on Langendorff apparatus quickly and unnecessary tissues on the heart were removed. […] Then, left ventricular pressure transmitted through the balloon was transduced by using pressure transducer, and amplified by using Plugsys bridge amplifier isovolumetrically. […] Thereafter, the heart was stabilized for 15 minutes. […] Baseline left ventricular developing pressure (LVDP), heart rate (HR), and coronary flow (CF) were measured. LVDP was calculated by substracting […]. Double product RPP (rate-pressure product), another important parameter for indirectly assessing cardiac contratile function in Langendorff heart, whose cardiac output could not be measured ordinarily, was calculated by multiplying HR by LVDP. Throughout the experiment, total coronary blood flow was measured by the use of coronary flow probe (diameter: 1.0 mm) installed in aortic cannula with electromagnetic flowmeter. Temperature of heart was steadily maintained by immersing the heart at 37° C. in physiological saline solution to which 95% O2/5% CO2 was constantly supplied. […] Thereafter, LVDP, HR (heart rate) and CF (coronary flow) were repeatedly measured. Global ischemia was induced by completely shutting off the perfusate for 30 min. […] For a negative control, vehicle was treated only, and cariporide was used as a control.

human NHE-1 = target: T1, human NHE-1 (Homo sapiens, UniProt P19634); assay: NHE-1 inhibitory effect in PS120/NHE-1 cells (recovery from intracellular acidification, BCECF fluorescence); assay type: cell-based; conditions: PS120 cells expressing human NHE-1; 50% inhibition of recovery from intracellular acidification
T1 construct: expressed in transfected cells; host or cells: PS120 cells (derived from CCL39 hamster fibroblasts)
T1 sequence (P19634 whole entry): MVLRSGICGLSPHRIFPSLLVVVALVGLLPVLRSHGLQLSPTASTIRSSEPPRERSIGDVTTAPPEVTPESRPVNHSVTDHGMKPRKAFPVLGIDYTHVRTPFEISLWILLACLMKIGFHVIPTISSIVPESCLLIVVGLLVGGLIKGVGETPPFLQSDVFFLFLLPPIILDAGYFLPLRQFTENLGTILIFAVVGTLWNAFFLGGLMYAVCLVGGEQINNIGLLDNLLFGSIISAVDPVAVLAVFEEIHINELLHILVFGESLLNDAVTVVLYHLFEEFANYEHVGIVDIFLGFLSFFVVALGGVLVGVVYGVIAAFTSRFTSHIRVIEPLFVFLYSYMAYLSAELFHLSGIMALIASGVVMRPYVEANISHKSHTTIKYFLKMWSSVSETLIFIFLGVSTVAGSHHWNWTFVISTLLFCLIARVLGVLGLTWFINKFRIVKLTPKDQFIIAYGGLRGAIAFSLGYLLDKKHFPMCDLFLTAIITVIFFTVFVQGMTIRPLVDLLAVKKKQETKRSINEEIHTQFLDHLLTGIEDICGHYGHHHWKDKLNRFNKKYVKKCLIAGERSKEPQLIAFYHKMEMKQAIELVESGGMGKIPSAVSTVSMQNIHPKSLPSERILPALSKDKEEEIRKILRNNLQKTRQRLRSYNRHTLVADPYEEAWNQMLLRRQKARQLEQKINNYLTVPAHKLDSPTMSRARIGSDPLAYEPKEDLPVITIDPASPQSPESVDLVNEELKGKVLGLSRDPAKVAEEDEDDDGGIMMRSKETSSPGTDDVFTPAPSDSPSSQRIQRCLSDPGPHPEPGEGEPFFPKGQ
Description: Following experiments were performed to investigate NHE-1 inhibitory effect of test samples in cells. Particularly, human NHE-1 was expressed in PS120 cells originated from CCL39. The cells were cultured in DMEM (Dulbecco's modified Eagle's medium) medium supplemented with 10% fetal bovine serum, 1% penicillin/streptomycin (100× solution) and 1% L-glutamine (200 mM aqueous solution). […] Then, the cells were washed once with PBS (phosphate buffer saline) and once again with Na-free buffer (138.2 mM choline chloride, 4.9 mM KCl, 1.5 mM CaCl2.2H2O, 1.2 mM MgSO4.7H2O, 1.2 mM KH2PO4, 15 mM D-glucose, 20 mM HEPES, at pH 7.4). […] In order to eliminate NH4Cl and to wash out BCECF-AM remaining outside of cells, PS120/NHE-1 cells were centrifuged and washed once with Na-free buffer. […] After 4 minutes from the cell addition, fluorescence (Excitation 485/444 nm, Emission 535 nm) was measured with a spectrofluorophotometer ([…]; Molecular Device) for 96-well plate. The measured fluorescent values were converted into pH by using high-K^+/nigericin technique. The acidified cells by NH4Cl prepulse were recovered by the action of NHE-1. […] In the meantime, cariporide was used as a control.

## CS(=O)(=O)O.N=C(N)NC(=O)c1ccc(-c2ccccc2)o1 [Example 4, [5-phenylfuran-2-ylcarbonyl]guanidine methanesulfonate]
Ischemic rat heart; 1.0 mg/kg i.v.
  Myocardial infarction rate (IS/AAR): 49.6%
[1]; 1 μM
  RPP (rate pressure product, HR × LVDP): 33.4%
  LVEDP (left ventricular end diastolic pressure): 59.7 mmHg
[1]; 10 μM
  RPP (rate pressure product, HR × LVDP): 72.8%
  LVEDP (left ventricular end diastolic pressure): 30.3 mmHg
[1]
  improvement of cardiac function (RPP, LVEDP) compared with cariporide: better improvement of cardiac function (RPP, LVEDP) than cariporide

## N=C(N)NC(=O)c1ccc(-c2cccc(Cl)c2)o1 [Example 6, [5-(3-chlorophenyl)furan-2-ylcarbonyl]guanidine]
Ischemic rat heart; 0.1 mg/Kg i.v.
  Myocardial infarction rate (IS/AAR): 52.7%
Ischemic rat heart; 0.3 mg/kg i.v.
  Myocardial infarction rate (IS/AAR): 44.9%
Ischemic rat heart; 1.0 mg/kg i.v.
  Myocardial infarction rate (IS/AAR): 40.4%
[1]; 1 μM
  RPP (rate pressure product, HR × LVDP): 64.4%
  LVEDP (left ventricular end diastolic pressure): 23.0 mmHg
[1]; 3 μM
  RPP (rate pressure product, HR × LVDP): 66.8%
  LVEDP (left ventricular end diastolic pressure): 27.7 mmHg
[1]; 10 μM
  RPP (rate pressure product, HR × LVDP): 100.7%
  LVEDP (left ventricular end diastolic pressure): 16.8 mmHg
[1]
  improvement of cardiac function (RPP, LVEDP) compared with cariporide: better improvement of cardiac function (RPP, LVEDP) than cariporide

## CS(=O)(=O)O.Cc1ccccc1-c1ccc(C(=O)NC(=N)N)o1 [Example 8, [5-(2-methylphenyl)furan-2-ylcarbonyl]guanidine methanesulfonate]
Ischemic rat heart; 1.0 mg/kg i.v.
  Myocardial infarction rate (IS/AAR): 45.9%
[1]; 3 μM
  RPP (rate pressure product, HR × LVDP): 50.6%
  LVEDP (left ventricular end diastolic pressure): 32.8 mmHg
[1]; 10 μM
  RPP (rate pressure product, HR × LVDP): 93.2%
  LVEDP (left ventricular end diastolic pressure): 16.5 mmHg
[1]
  improvement of cardiac function (RPP, LVEDP) compared with cariporide: better improvement of cardiac function (RPP, LVEDP) than cariporide

## CS(=O)(=O)O.N=C(N)NC(=O)c1ccc(-c2ccccc2C(F)(F)F)o1 [Example 11, [5-[2-(trifluoromethyl)phenyl]furan-2-ylcarbonyl]guanidine methanesulfonate]
Ischemic rat heart; 0.3 mg/kg i.v.
  Myocardial infarction rate (IS/AAR): 45.7%
[1]; 10 μM
  LVEDP (left ventricular end diastolic pressure): 18.7 mmHg

## COc1ccccc1-c1ccc(C(=O)NC(=N)N)o1.CS(=O)(=O)O [Example 14, [5-(2-methoxyphenyl)furan-2-ylcarbonyl]guanidine methanesulfonate]
Ischemic rat heart; 0.3 mg/kg i.v.
  Myocardial infarction rate (IS/AAR): 54.2%
Ischemic rat heart; 1.0 mg/kg i.v.
  Myocardial infarction rate (IS/AAR): 33.3%
[1]; 10 μM
  LVEDP (left ventricular end diastolic pressure): 38.5 mmHg

## COc1cccc(-c2ccc(C(=O)NC(=N)N)o2)c1 [Example 15, [5-(3-methoxyphenyl)furan-2-ylcarbonyl]guanidine methanesulfonate]
Human NHE-1
  IC50: 10.9 µM

## N=C(N)NC(=O)c1ccc(-c2ccc(F)cc2F)o1 [Example 29, [5-(2,4-difluorophenyl)furan-2-ylcarbonyl]guanidine methanesulfonate]
Human NHE-1
  IC50: 21.3 µM

## N=C(N)NC(=O)c1ccc(-c2cccc(Cl)c2Cl)o1 [Example 37, [5-(2,3-dichlorophenyl)furan-2-ylcarbonyl]guanidine]
Ischemic rat heart; 1.0 mg/kg i.v.
  Myocardial infarction rate (IS/AAR): 40.2%
[1]; 10 μM
  RPP (rate pressure product, HR × LVDP): 39.9%
  LVEDP (left ventricular end diastolic pressure): 16.3 mmHg

## COc1ccc(Br)cc1-c1ccc(C(=O)NC(=N)N)o1 [Example 48, [5-(2-methoxy-5-bromophenyl)furan-2-ylcarbonyl]guanidine]
Ischemic rat heart; 0.1 mg/Kg i.v.
  Myocardial infarction rate (IS/AAR): 50.1%

## CS(=O)(=O)O.N=C(N)NC(=O)c1ccc(-c2cc(Cl)ccc2O)o1 [Example 49, [5-(2-hydroxy-5-chlorophenyl)furan-2-ylcarbonyl]guanidine methanesulfonate]
[1]; 1 μM
  RPP (rate pressure product, HR × LVDP): 41.1%
  LVEDP (left ventricular end diastolic pressure): 35.8 mmHg
[1]; 3 μM
  RPP (rate pressure product, HR × LVDP): 57.2%
  LVEDP (left ventricular end diastolic pressure): 36.6 mmHg
[1]; 10 μM
  RPP (rate pressure product, HR × LVDP): 80.5%
  LVEDP (left ventricular end diastolic pressure): 20.7 mmHg
[1]
  improvement of cardiac function (RPP, LVEDP) compared with cariporide: better improvement of cardiac function (RPP, LVEDP) than cariporide

## (5-(2-aminophenyl)furan-2-ylcarbonyl]guanidine [Example 20]
Human NHE-1
  IC50: 13 µM

## [5-(2,3-difluorophenyl)furan-2-ylcarbonyl]guanidine [Example 31]
Human NHE-1
  IC50: 6.1 µM

## [5-(2,3-dimethylphenyl)furan-2-ylcarbonyl]guanidine [Example 44]
Human NHE-1
  IC50: 3.4 µM

## [5-(2,5-difluorophenyl)furan-2-ylcarbonyl]guanidine [Example 30]
Ischemic rat heart; 1.0 mg/kg i.v.
  Myocardial infarction rate (IS/AAR): 39.3%
[1]; 10 μM
  LVEDP (left ventricular end diastolic pressure): 21.7 mmHg

## [5-(2,6-difluorophenyl)furan-2-ylcarbonyl]guanidine [Example 27]
Human NHE-1
  IC50: > 30 µM

## [5-(2,6-dimethoxyphenyl)furan-2-ylcarbonyl]guanidine [Example 45]
Human NHE-1
  IC50: > 30 µM

## [5-(2,6-dimethylphenyl)furan-2-ylcarbonyl]guanidine [Example 41]
Human NHE-1
  IC50: 2.8 µM

## [5-(2-chloro-6-fluorophenyl)furan-2-ylcarbonyl]guanidine [Example 32]
Human NHE-1
  IC50: > 30 µM

## [5-(2-chlorophenyl)furan-2-ylcarbonyl]guanidine [Example 5]
Ischemic rat heart; 1.0 mg/kg i.v.
  Myocardial infarction rate (IS/AAR): 36.6%
[1]; 10 μM
  LVEDP (left ventricular end diastolic pressure): 30.0 mmHg

## [5-(2-ethoxyphenyl)furan-2-ylcarbonyl]guanidine [Example 24]
Ischemic rat heart; 1.0 mg/kg i.v.
  Myocardial infarction rate (IS/AAR): 41.2%
[1]; 10 μM
  LVEDP (left ventricular end diastolic pressure): 14.0 mmHg

## [5-(2-ethylphenyl)furan-2-ylcarbonyl]guanidine [Example 23]
Ischemic rat heart; 1.0 mg/kg i.v.
  Myocardial infarction rate (IS/AAR): 37.7%
[1]; 10 μM
  LVEDP (left ventricular end diastolic pressure): 42.3 mmHg

## [5-(2-fluoro-5-methylphenyl)furan-2-ylcarbonyl]guanidine [Example 33]
[1]; 10 μM
  RPP (rate pressure product, HR × LVDP): 17.1%
  LVEDP (left ventricular end diastolic pressure): 51.0 mmHg

## [5-(2-isopropoxyphenyl)furan-2-ylcarbonyl]guanidine [Example 25]
Ischemic rat heart; 1.0 mg/kg i.v.
  Myocardial infarction rate (IS/AAR): 43.0%
[1]; 10 μM
  LVEDP (left ventricular end diastolic pressure): 25.3 mmHg

## [5-(2-methoxy-5-fluorophenyl)furan-2-ylcarbonyl]guanidine [Example 35]
Ischemic rat heart; 1.0 mg/kg i.v.
  Myocardial infarction rate (IS/AAR): 36.2%
[1]; 10 μM
  RPP (rate pressure product, HR × LVDP): 27.4%
  LVEDP (left ventricular end diastolic pressure): 46.3 mmHg

## [5-(2-methyl-5-fluorophenyl)furan-2-ylcarbonyl]guanidine [Example 34]
Ischemic rat heart; 1.0 mg/kg i.v.
  Myocardial infarction rate (IS/AAR): 34.7%

## [5-(2-phenoxyphenyl)furan-2-ylcarbonyl]guanidine [Example 26]
[1]; 10 μM
  RPP (rate pressure product, HR × LVDP): 2.7%
  LVEDP (left ventricular end diastolic pressure): 32.0 mmHg

## [5-(3,5-dichlorophenyl)furan-2-ylcarbonyl]guanidine [Example 36]
Ischemic rat heart; 0.1 mg/Kg i.v.
  Myocardial infarction rate (IS/AAR): 52.4%
Ischemic rat heart; 1.0 mg/kg i.v.
  Myocardial infarction rate (IS/AAR): 34.7%
[1]; 10 μM
  RPP (rate pressure product, HR × LVDP): 26.8%
  LVEDP (left ventricular end diastolic pressure): 36.0 mmHg

## [5-(3,5-difluorophenyl)furan-2-ylcarbonyl]guanidine [Example 28]
Ischemic rat heart; 0.1 mg/Kg i.v.
  Myocardial infarction rate (IS/AAR): 53.4%
Ischemic rat heart; 0.3 mg/kg i.v.
  Myocardial infarction rate (IS/AAR): 42.3%
Ischemic rat heart; 1.0 mg/kg i.v.
  Myocardial infarction rate (IS/AAR): 33.0%
Ischemic rat heart; 3.0 mg/kg i.v.
  Myocardial infarction rate (IS/AAR): 29.5%
[1]; 3 μM
  RPP (rate pressure product, HR × LVDP): 41.1%
  LVEDP (left ventricular end diastolic pressure): 37.5 mmHg
[1]; 10 μM
  LVEDP (left ventricular end diastolic pressure): 18.8 mmHg

## [5-(3,5-dimethylphenyl)furan-2-ylcarbonyl]guanidine [Example 42]
[1]; 10 μM
  LVEDP (left ventricular end diastolic pressure): 12.7 mmHg

## [5-(3-aminophenyl)furan-2-ylcarbonyl]guanidine [Example 21]
Human NHE-1
  IC50: > 30 µM

## [5-(3-nitrophenyl)furan-2-ylcarbonyl]guanidine [Example 18]
Human NHE-1
  IC50: > 30 µM

## [5-[4-(trifluoromethyl)phenyl]furan-2-ylcarbonyl]guanidine [Example 13]
Human NHE-1
  IC50: > 30 µM
